Results on 16 molecules are retold here after PubChem BioAssay (NCI).

Several values for one entry are separate records, joined by “and”; a condition that tells them apart may be missing. Equal values may be shown once.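 Grown in 96-well plates, cells were treated for 48 hours with each compound at five concentrations. Insufficient inhibition: endpoint recorded as highest concentration tested. GI50 marks 50% less growth. TGI marks complete inhibition of growth.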

The first test has as its system HOP-62 NSCLC. Description: inhibition of tumour cell growth, NCI panel, 48 h.
Consider `O=C(CSC1CCc2ccccc21)N/N=C/c1ccccc1O` (centres undefined), for which the GI50 is 10.8 µM and the TGI is greater than 100 µM.

In another test the test system is NCI-H23 lung. Description: inhibition of tumour cell growth, NCI panel, 48 h.
Consider `NC(=O)c1cc(S(=O)(=O)Nc2nnc(-c3ccccc3)c(-c3ccccc3)n2)c(SCc2ccccc2)cc1Cl`, for which the GI50 was greater than 72.3 µM and the TGI was greater than 100 µM.

Turning to `Cc1cc(C)c(/C=C2\C(=O)Nc3ccc(NC(=O)CCCCCCC(=O)NO)cc32)[nH]1`, the GI50 is 3.79 µM and the TGI is greater than 100 µM.

Molecule `COc1ccc(-c2coc3c4c(ccc3c2=O)OCO4)cc1OC` had a TGI greater than 100 µM.

With `CC(C)(S)C(N)C(=O)O` (centres undefined), the GI50 was 1510 µM and the TGI is greater than 5000 µM.

In the case of `CN1C(=O)/C(=C/c2c(Cl)n(C)c3ccccc23)c2ccccc21`, the GI50 is 1.92 µM and 1.56 µM; the TGI is 5.96 µM and 2.94 µM.

Turning to `Cc1nc(-[n+]2nc(-c3ccncc3)nn2-c2ccccc2)sc1C`, the TGI is greater than 100 µM.

With `CCOC(=O)/C=C(/C)Sc1cc(O)c2ccccc2c1O`, the GI50 was 2.07 µM and the TGI was 5.67 µM.

For the molecule `N=C(N)c1ccc2nc(-c3cc(CC(=O)N[C@@H](CC(=O)O)C(=O)O)cc(-c4cc(S(N)(=O)=O)ccc4O)c3O)[nH]c2c1`, the GI50 is greater than 100 µM and the TGI was greater than 100 µM.

Take `COc1ccc(O)c(C(=O)c2ccc(C(=O)N[C@H]3CCCNC[C@@H]3NC(=O)c3ccncc3)cc2)c1F`: the GI50 was 2.63 µM and the TGI was greater than 25 µM.

Turning to `COc1ccc(-n2c(C)cc(-c3ccccc3)c2C)cc1`, the GI50 was 2.16 µM and the TGI is 16.2 µM.

In the case of `O[C@H](c1cc(C(F)(F)F)nc2c(C(F)(F)F)cccc12)[C@@H]1CCCCN1`, the GI50 was 4.75 µM and the TGI was 16.6 µM.

For `CCCOc1ccc2sc(NC(=O)OC)nc2c1`, the GI50 was 5.77 µM and the TGI is greater than 100 µM.

With `O=C(O)c1ccc(OCc2ccccc2)c(Cl)c1`, the TGI is greater than 100 µM.

Consider `OCCCNc1nccc(-c2c(-c3ccc(F)cc3)nn3cc(C(F)(F)F)ccc23)n1`, for which the GI50 is greater than 25 µM and the TGI is greater than 25 µM.

On to `O=S(=O)(Nc1ccc(F)cc1F)c1ccc(-c2cnc(C3CC3)o2)cc1`, for which the GI50 is 1.75 µM and the TGI was found to be 68.9 µM.

As to `O=C(CSC1CCc2ccccc21)N/N=C/c1ccccc1O` (centres undefined), the GI50 is 9.83 µM and the TGI was greater than 100 µM.

The next test deals with OVCAR-8 ovarian. As to the kind of experiment: inhibition of tumour cell growth, NCI panel, 48 h.
`NC(=O)c1cc(S(=O)(=O)Nc2nnc(-c3ccccc3)c(-c3ccccc3)n2)c(SCc2ccccc2)cc1Cl`: the GI50 is greater than 50.3 µM and the TGI was greater than 77.5 µM.

With `Cc1cc(C)c(/C=C2\C(=O)Nc3ccc(NC(=O)CCCCCCC(=O)NO)cc32)[nH]1`, the GI50 is 0.638 µM and the TGI was greater than 100 µM.

The molecule `COc1ccc(-c2coc3c4c(ccc3c2=O)OCO4)cc1OC` registered a TGI greater than 100 µM.

For the molecule `CC(C)(S)C(N)C(=O)O` (centres undefined), the GI50 is 3450 µM and the TGI is greater than 5000 µM.

As to `CN1C(=O)/C(=C/c2c(Cl)n(C)c3ccccc23)c2ccccc21`, the GI50 was 5.49 µM.

In the case of `Cc1nc(-[n+]2nc(-c3ccncc3)nn2-c2ccccc2)sc1C`, the TGI was greater than 100 µM.

As to `CCOC(=O)/C=C(/C)Sc1cc(O)c2ccccc2c1O`, the GI50 is 2.99 µM and the TGI is 12.9 µM.

Take `N=C(N)c1ccc2nc(-c3cc(CC(=O)N[C@@H](CC(=O)O)C(=O)O)cc(-c4cc(S(N)(=O)=O)ccc4O)c3O)[nH]c2c1`: the GI50 was greater than 100 µM and the TGI was greater than 100 µM.

As for `COc1ccc(O)c(C(=O)c2ccc(C(=O)N[C@H]3CCCNC[C@@H]3NC(=O)c3ccncc3)cc2)c1F`, the GI50 is 5.5 µM and the TGI is greater than 21.3 µM.

For the molecule `COc1ccc(-n2c(C)cc(-c3ccccc3)c2C)cc1`, the GI50 is 3.51 µM and the TGI was found to be 38 µM.

Turning to `O[C@H](c1cc(C(F)(F)F)nc2c(C(F)(F)F)cccc12)[C@@H]1CCCCN1`, the GI50 was 5.11 µM and the TGI turned out to be 14.7 µM.

Regarding `CCCOc1ccc2sc(NC(=O)OC)nc2c1`, the GI50 was 5 µM and the TGI was greater than 100 µM.

`O=C(O)c1ccc(OCc2ccccc2)c(Cl)c1`: the TGI was greater than 100 µM.

Regarding `OCCCNc1nccc(-c2c(-c3ccc(F)cc3)nn3cc(C(F)(F)F)ccc23)n1`, the GI50 is 16.9 µM and the TGI is greater than 25 µM.

Regarding `O=S(=O)(Nc1ccc(F)cc1F)c1ccc(-c2cnc(C3CC3)o2)cc1`, the GI50 is 1.57 µM and the TGI was greater than 95.2 µM.

For the molecule `O=C(CSC1CCc2ccccc21)N/N=C/c1ccccc1O` (centres undefined), the GI50 was 3.66 µM and the TGI is greater than 100 µM.

In the next test the test system is PC-3 prostate. Description: inhibition of tumour cell growth, NCI panel, 48 h.
Consider `NC(=O)c1cc(S(=O)(=O)Nc2nnc(-c3ccccc3)c(-c3ccccc3)n2)c(SCc2ccccc2)cc1Cl`, for which the GI50 was greater than 62.2 µM and the TGI is greater than 100 µM.

As to `Cc1cc(C)c(/C=C2\C(=O)Nc3ccc(NC(=O)CCCCCCC(=O)NO)cc32)[nH]1`, the GI50 is 0.684 µM and the TGI is greater than 100 µM.

With `COc1ccc(-c2coc3c4c(ccc3c2=O)OCO4)cc1OC`, the TGI is greater than 100 µM.

With `CC(C)(S)C(N)C(=O)O` (centres undefined), the GI50 is 1320 µM and the TGI was greater than 5000 µM.

As to `CN1C(=O)/C(=C/c2c(Cl)n(C)c3ccccc23)c2ccccc21`, the GI50 was 2.67 µM.

On to `Cc1nc(-[n+]2nc(-c3ccncc3)nn2-c2ccccc2)sc1C`, for which the TGI was greater than 100 µM.

Take `CCOC(=O)/C=C(/C)Sc1cc(O)c2ccccc2c1O`: the GI50 is 4.59 µM and the TGI is 22.8 µM.

As to `N=C(N)c1ccc2nc(-c3cc(CC(=O)N[C@@H](CC(=O)O)C(=O)O)cc(-c4cc(S(N)(=O)=O)ccc4O)c3O)[nH]c2c1`, the GI50 was greater than 100 µM and the TGI was greater than 100 µM.

Turning to `COc1ccc(O)c(C(=O)c2ccc(C(=O)N[C@H]3CCCNC[C@@H]3NC(=O)c3ccncc3)cc2)c1F`, the GI50 was greater than 21.6 µM and the TGI is greater than 25 µM.

`COc1ccc(-n2c(C)cc(-c3ccccc3)c2C)cc1`: the GI50 was 2.22 µM and the TGI was greater than 100 µM.

Turning to `O[C@H](c1cc(C(F)(F)F)nc2c(C(F)(F)F)cccc12)[C@@H]1CCCCN1`, the GI50 was 2.08 µM and the TGI turned out to be 5.79 µM.

As for `CCCOc1ccc2sc(NC(=O)OC)nc2c1`, the GI50 is 3.48 µM and the TGI was greater than 100 µM.

With `O=C(O)c1ccc(OCc2ccccc2)c(Cl)c1`, the TGI is greater than 100 µM.

On to `OCCCNc1nccc(-c2c(-c3ccc(F)cc3)nn3cc(C(F)(F)F)ccc23)n1`, for which the GI50 is 15.1 µM and the TGI is greater than 25 µM.

For `O=S(=O)(Nc1ccc(F)cc1F)c1ccc(-c2cnc(C3CC3)o2)cc1`, the GI50 is 0.897 µM and the TGI was greater than 50.1 µM.

For `O=C(CSC1CCc2ccccc21)N/N=C/c1ccccc1O` (centres undefined), the GI50 is 3.89 µM and the TGI turned out to be 75.8 µM.

Another test concerns SK-MEL-28 melanoma. Description: inhibition of tumour cell growth, NCI panel, 48 h.
With `NC(=O)c1cc(S(=O)(=O)Nc2nnc(-c3ccccc3)c(-c3ccccc3)n2)c(SCc2ccccc2)cc1Cl`, the TGI was greater than 100 µM.

Regarding `Cc1cc(C)c(/C=C2\C(=O)Nc3ccc(NC(=O)CCCCCCC(=O)NO)cc32)[nH]1`, the GI50 is 0.525 µM and the TGI was greater than 100 µM.

For `COc1ccc(-c2coc3c4c(ccc3c2=O)OCO4)cc1OC`, the TGI is greater than 100 µM.

For `CC(C)(S)C(N)C(=O)O` (centres undefined), the GI50 was greater than 5000 µM and the TGI was greater than 5000 µM.

Consider `CN1C(=O)/C(=C/c2c(Cl)n(C)c3ccccc23)c2ccccc21`, for which the GI50 is 5.24 µM and 1.62 µM; the TGI was determined as 3.05 µM.

With `Cc1nc(-[n+]2nc(-c3ccncc3)nn2-c2ccccc2)sc1C`, the TGI is greater than 100 µM.

As to `CCOC(=O)/C=C(/C)Sc1cc(O)c2ccccc2c1O`, the GI50 was 2.34 µM and the TGI turned out to be 5.45 µM.

Turning to `N=C(N)c1ccc2nc(-c3cc(CC(=O)N[C@@H](CC(=O)O)C(=O)O)cc(-c4cc(S(N)(=O)=O)ccc4O)c3O)[nH]c2c1`, the GI50 was greater than 100 µM and the TGI was greater than 100 µM.

On to `COc1ccc(O)c(C(=O)c2ccc(C(=O)N[C@H]3CCCNC[C@@H]3NC(=O)c3ccncc3)cc2)c1F`, for which the GI50 was greater than 18.4 µM and the TGI was greater than 25 µM.

In the case of `COc1ccc(-n2c(C)cc(-c3ccccc3)c2C)cc1`, the GI50 is 3.68 µM and the TGI was greater than 100 µM.

Take `O[C@H](c1cc(C(F)(F)F)nc2c(C(F)(F)F)cccc12)[C@@H]1CCCCN1`: the GI50 is 2.29 µM and the TGI stood at 5.63 µM.

For `CCCOc1ccc2sc(NC(=O)OC)nc2c1`, the GI50 was 18.6 µM and the TGI is greater than 100 µM.

`O=C(O)c1ccc(OCc2ccccc2)c(Cl)c1` showed a TGI greater than 100 µM.

Regarding `OCCCNc1nccc(-c2c(-c3ccc(F)cc3)nn3cc(C(F)(F)F)ccc23)n1`, the GI50 was 15.9 µM and the TGI is greater than 25 µM.

Consider `O=S(=O)(Nc1ccc(F)cc1F)c1ccc(-c2cnc(C3CC3)o2)cc1`, for which the GI50 was 13.1 µM and the TGI was greater than 71.9 µM.

For the molecule `O=C(CSC1CCc2ccccc21)N/N=C/c1ccccc1O` (centres undefined), the GI50 is 4.72 µM and the TGI was greater than 100 µM.

In the next test the test system is SK-MEL-5 melanoma. As to the kind of experiment: inhibition of tumour cell growth, NCI panel, 48 h.
With `NC(=O)c1cc(S(=O)(=O)Nc2nnc(-c3ccccc3)c(-c3ccccc3)n2)c(SCc2ccccc2)cc1Cl`, the GI50 was greater than 79.6 µM and the TGI was greater than 100 µM.

Take `Cc1cc(C)c(/C=C2\C(=O)Nc3ccc(NC(=O)CCCCCCC(=O)NO)cc32)[nH]1`: the GI50 is 0.335 µM and the TGI stood at 14.7 µM.

Molecule `COc1ccc(-c2coc3c4c(ccc3c2=O)OCO4)cc1OC` displayed a TGI greater than 100 µM.

As to `CC(C)(S)C(N)C(=O)O` (centres undefined), the GI50 was 895 µM; the TGI was 2390 µM and > 100 µM.

In the case of `CN1C(=O)/C(=C/c2c(Cl)n(C)c3ccccc23)c2ccccc21`, the GI50 is 2.1 µM and 1.96 µM; the TGI was 6.51 µM and 3.46 µM.

`Cc1nc(-[n+]2nc(-c3ccncc3)nn2-c2ccccc2)sc1C` showed a TGI greater than 100 µM.

In the case of `CCOC(=O)/C=C(/C)Sc1cc(O)c2ccccc2c1O`, the GI50 is 1.59 µM and the TGI was 2.99 µM.

Consider `N=C(N)c1ccc2nc(-c3cc(CC(=O)N[C@@H](CC(=O)O)C(=O)O)cc(-c4cc(S(N)(=O)=O)ccc4O)c3O)[nH]c2c1`, for which the GI50 is greater than 100 µM and the TGI was greater than 100 µM.

Consider `COc1ccc(O)c(C(=O)c2ccc(C(=O)N[C@H]3CCCNC[C@@H]3NC(=O)c3ccncc3)cc2)c1F`, for which the GI50 is 5.5 µM and the TGI is greater than 17.8 µM.

As for `COc1ccc(-n2c(C)cc(-c3ccccc3)c2C)cc1`, the GI50 is 1.77 µM and the TGI amounted to 4.86 µM.

Turning to `O[C@H](c1cc(C(F)(F)F)nc2c(C(F)(F)F)cccc12)[C@@H]1CCCCN1`, the GI50 is 3.64 µM and the TGI was found to be 8.09 µM.

As to `CCCOc1ccc2sc(NC(=O)OC)nc2c1`, the GI50 was 1.12 µM and the TGI was greater than 100 µM.

`O=C(O)c1ccc(OCc2ccccc2)c(Cl)c1` returned a TGI greater than 100 µM.

With `OCCCNc1nccc(-c2c(-c3ccc(F)cc3)nn3cc(C(F)(F)F)ccc23)n1`, the GI50 is 8.4 µM and the TGI is greater than 25 µM.

On to `O=S(=O)(Nc1ccc(F)cc1F)c1ccc(-c2cnc(C3CC3)o2)cc1`, for which the GI50 is 0.666 µM and the TGI was found to be 12.9 µM.

As to `O=C(CSC1CCc2ccccc21)N/N=C/c1ccccc1O` (centres undefined), the GI50 was 1.85 µM and the TGI is 5.17 µM.
